Read-outs that look alike come from different tables or passages of the source.
How the values were obtained:
A2A adenosine protein = A2A adenosine protein (Homo sapiens, UniProt P29274); assay: Test of solubilization of A2A membrane protein (Western Blot after 100 000 g centrifugation); conditions: for solubility (solubilization) of A2A adenosine protein: 4° C, protein 20 mg/ml
Method: Solubility Test of Protein of Interest: A2A Adenosine.
The protein content was set at 20 mg/ml (20 mM Tris-Cl pH 8.0, 150 mM NaCl, 10% Glycerol). The solubilization is effected at 4° C. The solubilized or non-solubilized protein fractions are separated by a 100 000 g centrifugation step for 1 hour at 4° C.

[1] = target: T1, Bacteriorhodopsin protein (bR) (Halobacterium salinarum, UniProt P02945); assay: Stability test of bacteriorhodopsin protein over time (absorbance at 550 nm); conditions: after 1 month and a half exposure at 37° C. in the dark
T1 sequence (P02945 14-262): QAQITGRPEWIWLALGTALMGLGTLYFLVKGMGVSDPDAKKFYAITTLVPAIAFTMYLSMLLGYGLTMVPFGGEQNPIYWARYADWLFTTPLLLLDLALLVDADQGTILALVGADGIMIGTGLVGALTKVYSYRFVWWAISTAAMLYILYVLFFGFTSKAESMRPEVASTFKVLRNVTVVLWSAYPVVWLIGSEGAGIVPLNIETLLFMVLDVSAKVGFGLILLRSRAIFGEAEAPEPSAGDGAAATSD

[2] = Average particle size of aggregates by DLS (Dynamic Light Scattering); assay type: physicochemical
Method: FIGS. 3a) and 3b) are two diagrams showing the average particle size obtained by DLS (Dynamic Light Scattering) analysis of CALX173GALO compound (FIG. 3a) and CALX173GLUK compound (FIG. 3b) at respectively 0.47 and 0.08 mM.
FIGS. 3a and 3b show the aggregation state of CALX173GALO and CALX173GLUK. As illustrated, all the systems observed form aggregates of the micellar type.

[3] = CMC (H2O) of known detergents as stated in figure legend; assay type: physicochemical; conditions: no source given
[4] = from VanAken et al. 1986; cited from earlier work

A2A adenosine protein, sequence (P29274 whole entry): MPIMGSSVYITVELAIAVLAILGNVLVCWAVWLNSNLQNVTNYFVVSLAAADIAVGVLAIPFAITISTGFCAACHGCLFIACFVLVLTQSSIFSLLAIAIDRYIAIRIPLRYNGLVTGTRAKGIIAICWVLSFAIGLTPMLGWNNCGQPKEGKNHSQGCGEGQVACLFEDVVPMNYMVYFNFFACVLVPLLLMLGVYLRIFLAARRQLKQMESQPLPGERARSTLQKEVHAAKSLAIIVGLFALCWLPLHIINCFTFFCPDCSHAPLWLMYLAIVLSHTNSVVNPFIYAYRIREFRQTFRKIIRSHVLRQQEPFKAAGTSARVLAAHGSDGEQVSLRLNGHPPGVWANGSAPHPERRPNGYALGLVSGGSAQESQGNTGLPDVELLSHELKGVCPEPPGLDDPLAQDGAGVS

Which “solubility (solubilization) of A2A adenosine protein” value (“solubility (solubilization)” below) (A2A adenosine protein; detergent at 8 CMC) does the source give for “5,11,17-Tris{2-[4-(b-D-glucopyranosyl)-1H-1,2,3-triazol-1-yl]-ethyl}-25-heptoxy-26,27,28-trismethoxy-calix[4]arene [CALX173GLUK]” here?
Its value is “nonexistent”.

And the “solubility (solubilization)” value (A2A adenosine protein; detergent at 20 CMC)?
Its value is “enhances the solubilization”.

And the “absorbance at 550 nm of bR protein” value [1]?
The value was 0.75.

What about the “dparticules (average particle size by DLS)” value ([2]; at 0.08 mM) of the same compound?
The value was 5.53 nm.

With “25-heptyloxy-26,27,28-tris(hydroxyl)calix-[4]-arene-5,11,17-tris(acetic acid) sodium salt [CALX173ACE]” as the compound, how does the “CMC (H2O)” value [3] read?
The value was 2.5 mM.

Which “solubilization of A2A protein compared with reference compounds DDM and CALX173ACE” value (A2A adenosine protein; 20 CMC) does the source give for `CCCCCCCOc1c2cccc1Cc1cc(CCO[C@@H]3O[C@H](CO)[C@H](O)[C@H](O)[C@H]3O)cc(c1OC)Cc1cc(CCO[C@@H]3O[C@H](CO)[C@H](O)[C@H](O)[C@H]3O)cc(c1OC)Cc1cc(CCO[C@@H]3O[C@H](CO)[C@H](O)[C@H](O)[C@H]3O)cc(c1OC)C2` [CALX173GALO, 5,11,17-Tris[2-(b-D-galactopyranosyloxy)ethyl]-25-heptoxy-26,27,28-trismethoxy-calix[4]arene] here?
Its value is “better”.

And the “solubility (solubilization)” value (A2A adenosine protein; detergent at 20 CMC)?
The value was “partial”.

What about the “absorbance at 550 nm of bR protein” value [1] of the same compound?
Its value is “around 0.4”.

And the “dparticules (average particle size by DLS)” value ([2]; at 0.47 mM)?
Its value is 5.46 nm.

For `CCCCCCCCCCCCO[C@@H]1O[C@H](CO)[C@@H](O[C@H]2O[C@H](CO)[C@@H](O)[C@H](O)[C@H]2O)[C@H](O)[C@H]1O` [DDM, n-dodecyl-β-D-maltopyranoside, reference compound], which “solubilization of A2A protein” value (A2A adenosine protein; 20 CMC, reference compounds) is on record?
The value was “about 20%”.

What about the “solubility (solubilization)” value (A2A adenosine protein; detergent at 20 CMC) of the same compound?
Its value is “partial”.

And the “CMC (H2O)” value [4]?
Its value is 0.17 mM.

With `CCCCCCCCO[C@@H]1O[C@H](CO)[C@@H](O)[C@H](O)[C@H]1O` [OG, Octyl Glucoside, reference compound] as the compound, how does the “stability of the bR protein” value [1] read?
Its value is “nonexistent”.

For “Maltose-Neopentyl Glycol [MNG-12, reference compound]”, which “absorbance at 550 nm of bR protein” value [1] is on record?
The value was “around 0.4”.

From US9695209B2, “Synthesis of amphiphilic calixarene glycoside detergents and use of same for extracting and stabilizing native functional membrane proteins” (CALIXAR, priority 2014, dated 2017)
